According to patent publication US11352396B2, “Antimicrobial peptides and methods of using same” (Zoetis Services LLC, priority 2017, dated 2022):
In brackets after ≈: the same amount, converted by molar mass. Residues, ends and D or L forms follow the SMILES beside them.

Tests used:
[1] = test system: MSSP (Methicillin-Susceptible Staphylococcus pseudintermedius); assay: MIC against selected strains of MSSP; assay type: cell-based; parameters: key to MIC MSSP 84658 / MIC MSSP 86000 / MIC MSSP 71990 / MIC MSSP 72036 / MIC MSSP 78032: MIC in μM; key to MIC MSSP 86001 / MIC MSSP 72191 / MIC MSSP 76986 / MIC MSSP 77378: MIC in μM (first well with no visible growth); MIC MSSP 49051 / MIC MSSP 81923 / MIC MSSP 84250 / Effect on MSSP 86000 / Effect on MSSP 72036 / Effect on MSSP 78032: unit not given beside the values; settings: for MIC MSSP 49051: strain 49051, Table 3; for MIC MSSP 71990: strain 71990, Table 3; for MIC MSSP 72036: strain 72036, Table 3; for MIC MSSP 72191: strain 72191, Table 3; for MIC MSSP 76986: strain 76986, Table 3; for MIC MSSP 77378: strain 77378, Table 3; for MIC MSSP 78032: strain 78032, Table 3; for MIC MSSP 81923: strain 81923, Table 3; for MIC MSSP 84250: strain 84250, Table 3; for MIC MSSP 84658: strain 84658, Table 3; for MIC MSSP 86000: strain 86000, Table 3; for MIC MSSP 86001: strain 86001, Table 3
Protocol: (§1) Peptides according to SEQ ID NOs as listed in Table 1 were prepared by a commercial manufacturer (CS Bio, Menlo Park, Calif.) using solid phase synthesis. Antimicrobial activity was assessed by determining the Minimal Inhibitory Concentration (MIC) against S. aureus and E. coli. Briefly, Microbroth MICs were performed using CLSI methodology (VET01-S2). For S. aureus and E. coli ATCC strains, TSA with 5% lysed horse blood agar was used for overnight culturing at 37° C. ambient air. A 0.5 mM stock for each peptide was made with cell culture water, 0.01% acetic acid and serially diluted and spotted (10 μL) in a 96-well plate for in assay dose titration concentration of 50 μM to 0.05 μM. 0.5 McFarland Standard of each strain was diluted 1:250 in Mueller-Hinton Broth (MHB). 90 μL of culture suspension was then added upon drug in the 96-well plate for overnight incubation for 18-20 hours. The MIC was determined visually at the first well of no visible growth at the corresponding concentration.
(§2) Antimicrobial activity of the peptides listed in Table 2 against different strains of MSSP (Methicillin-Susceptible Staphylococcus pseudintermedius) and MRSP (Methicillin-Resistant Staphylococcus pseudintermedius) was further assessed. The results are in Tables 3 and 4, respectively.

[2] = test system: MRSP (Methicillin-Resistant Staphylococcus pseudintermedius); assay: MIC against selected strains of MRSP; assay type: cell-based; parameters: key to MIC MRSP 88493 / MIC MRSP 72035 / MIC MRSP 81926: MIC in μM; key to MIC MRSP 71994 / MIC MRSP 79882 / MIC MRSP 80729 / MIC MRSP 86002: MIC in μM (first well with no visible growth); key to MIC MRSP 72192 / MIC MRSP 76923 / MR 71994 / Mr 88493 / MR 72035 / MR 72192 / MR 76923 / MR 79882 / MR 80279 / MR 81926 / MR 86002 / MR 87665: MIC in μM (visual, first well with no growth); MIC MRSP 87655: unit not given beside the values; settings: for MIC MRSP 71994: strain 71994, Table 4; for MIC MRSP 72035: strain 72035, Table 4; for MIC MRSP 72192: strain 72192, Table 4; for MIC MRSP 76923: strain 76923, Table 4; for MIC MRSP 79882: strain 79882, Table 4; for MIC MRSP 80729: strain 80729, Table 4; for MIC MRSP 81926: strain 81926, Table 4; for MIC MRSP 86002: strain 86002, Table 4; for MIC MRSP 87655: strain 87655, Table 4; for MIC MRSP 88493: strain 88493, Table 4
Protocol: as §1, §2

[3] = test system: Canine-derived epithelial keratinocyte (CPEK) cells; assay type: cell-based
Protocol: Safety of the peptides listed in table 2 was determining by measuring cell viability. Canine-derived epithelial keratinocyte (CPEK) cells were propagated to determine cell viability in the presence of peptides. Cells were grown from a frozen stock in CnT-09-5 (with supplements) pre-warmed media in a T75 flask and incubated overnight at 37° C., 5% CO2. Cells were washed with phosphate buffer and replenished with pre-warmed CnT-05-9 media and repeated for several days until cells reached a density of 6.6×10^4 cells/mL. Cells were then transferred to a 384 well plate, allowed to settle and dosed with peptides and melittin control peptide (50 μM to 0.05 μM) and incubated overnight at 37° C., 5% CO2. 0.1% TritonX100 as (HPE) and phosphate buffer alone as (ZPE) were added to the plates to calculate percent effect once the assay was terminated with 10 μL CELLTITER-GLO® assay reagents for a luminescent readout.

[4] = test system: cRBC; assay type: cell-based, canine
Protocol: SEQ ID NO: 1 was selected for further research. Toxicity of SEQ ID NO: 1 to eukaryotic blood cells was compared to that of tachyplesin (SEQ ID NO: 13). A standard, well referenced red blood cell hemolysis assay was employed against multiple species to test the lysis potential of the peptides. Red blood cells (RBCs) were prepared and isolated by several centrifuge and wash steps to remove the plasma fraction. A dose titration (50 μM to 0.05 μM) of test peptides and control peptide melittin were spotted from 50 mM stocks in a 384 well plate. Prepared RBCs were incubated with peptide for one hour at 37° C. Percent hemolysis was measured by optical density at 405 nm and utilizing 1% TritonX100 as hundred percent effect (HPE) and phosphate buffer alone as zero percent effect (ZPE).

[5] = test system: S. aureus ATCC 29213; assay type: cell-based; settings: ATCC 29213
Protocol: as §1

[6] = test system: E. coli ATCC 25922; assay type: cell-based; settings: ATCC 25922
Protocol: as §1

Row | Compound | MIC MSSP 49051 [1] | MIC MSSP 71990 [1] | MIC MSSP 72036 [1] | MIC MSSP 72191 [1] | MIC MSSP 76986 [1] | MIC MSSP 77378 [1] | MIC MSSP 78032 [1] | MIC MSSP 81923 [1] | MIC MSSP 84250 [1] | MIC MSSP 84658 [1] | MIC MSSP 86000 [1] | MIC MSSP 86001 [1] | MIC MRSP 71994 [2] | MIC MRSP 72035 [2] | MIC MRSP 72192 [2] | MIC MRSP 76923 [2] | MIC MRSP 79882 [2] | MIC MRSP 80729 [2] | MIC MRSP 81926 [2] | MIC MRSP 86002 [2] | other results
1 | 3 (GWCFRVCYRGICYRRCRD; Artificial Antimicrobial peptide) [compound 3] | 1.6 | 1.6 | 1.6 | 1.6 | 1.6 | 0.4 | 1.6 | 1.6 | 1.6 | 1.6 | 1.6 | 0.8 | 1.6 | 1.6 | 1.6 | 1.6 | 0.8 | 1.6 | 1.6 | 1.6 | MIC MRSP 87655 [2]: 1.6; MIC MRSP 88493 [2]: 1.6; CPEK (50 μM) [3]: 42.1; cRBC (50 μM) [4]: 67.1
2 | 6 (KWCFRVCRRGICYRRCRD; Artificial Antimicrobial peptide) [compound 6] | 3.1 | 3.1 | 3.1 | 3.1 | 3.1 | 1.6 | 3.1 | 3.1 | 3.1 | 3.1 | 3.1 | 3.1 | 3.1 | 3.1 | 3.1 | 3.1 | 3.1 | 3.1 | 3.1 | 3.1 | MIC MRSP 87655 [2]: 3.1; MIC MRSP 88493 [2]: 3.1; CPEK (50 μM) [3]: 4.1; cRBC (50 μM) [4]: 1.1
3 | 4 (KFCFRVCYRGICYRRCRD; Artificial antimicrobial peptide) [compound 4] | 1.6 | 1.6 | 0.8 | 0.8 | 0.8 | 0.4 | 0.8 | 1.6 | 1.6 | 1.6 | 1.6 | 0.8 | 1.6 | 1.6 | 1.6 | 0.8 | 0.8 | 0.8 | 0.8 | 1.6 | MIC MRSP 87655 [2]: 1.6; MIC MRSP 88493 [2]: 1.6; CPEK (50 μM) [3]: 16.6; cRBC (50 μM) [4]: 67.1
4 | 9 (KWCFRVCYRGFCYRRCRD; Artificial Antimicrobial peptide) [compound 9] | 1.6 | 1.6 | 0.8 | 1.6 | 0.8 | 0.4 | 0.8 | 1.6 | 1.6 | 1.6 | 0.8 | 0.8 | 1.6 | 1.6 | 1.6 | 1.6 | 0.8 | 1.6 | 1.6 | 1.6 | MIC MRSP 87655 [2]: 1.6; MIC MRSP 88493 [2]: 1.6; CPEK (50 μM) [3]: 52.3; cRBC (50 μM) [4]: 101.3
5 | 7 (KWCFRVCYRGVCYRRCRD; Artificial Antimicrobial peptide) [compound 7] | 1.6 | 1.6 | 1.6 | 1.6 | 1.6 | 0.8 | 1.6 | 1.6 | 1.6 | 1.6 | 1.6 | 1.6 | 1.6 | 1.6 | 1.6 | 1.6 | 1.6 | 1.6 | 1.6 | 1.6 | MIC MRSP 87655 [2]: 1.6; MIC MRSP 88493 [2]: 1.6; CPEK (50 μM) [3]: 11.3; cRBC (50 μM) [4]: 84.1
6 | CC(C)C[C@H](NC(=O)[C@H](CCCNC(=N)N)NC(=O)CNC(=O)CNC(=O)[C@@H](N)CCCNC(=N)N)C(=O)N[C@@H](CS)C(=O)N[C@@H](Cc1ccc(O)cc1)C(=O)N[C@@H](CS)C(=O)N[C@@H](CCCNC(=N)N)C(=O)N[C@@H](CCCNC(=N)N)C(=O)N[C@@H](CCCNC(=N)N)C(=O)N[C@@H](Cc1ccccc1)C(=O)N[C@@H](CS)C(=O)N[C@H](C(=O)N[C@@H](CS)C(=O)N[C@H](C(=O)NCC(=O)N[C@@H](CCCNC(=N)N)C(=O)O)C(C)C)C(C)C [SEQ ID NO: 92, RGGRLCYCRRRFCVCVGR] (H-RGGRLCYCRRRFCVCVGR-OH; N-terminus and C-terminus assumed) |  |  |  |  |  |  |  |  |  |  |  |  |  |  |  |  |  |  |  |  | MIC S. aureus ATCC 29213 [5]: 3.1 µM (≈ 6.7 µg/mL); MIC E. coli ATCC 25922 [6]: 3.1 µM (≈ 6.7 µg/mL)
7 | CC(C)[C@H](NC(=O)[C@H](CS)NC(=O)[C@H](Cc1ccccc1)NC(=O)CNC(=O)[C@H](CC(N)=O)NC(=O)[C@H](CCCCN)NC(=O)[C@H](CS)NC(=O)[C@H](CCCCN)NC(=O)[C@H](CS)NC(=O)CNC(=O)[C@H](CCCCN)NC(=O)[C@@H](N)CCCNC(=N)N)C(=O)N[C@@H](CS)C(=O)N[C@@H](CCCNC(=N)N)C(N)=O [SEQ ID NO: 65, RKGCKCKNGFCVCR-NH2] (H-RKGCKCKNGFCVCR-NH2; N-terminus assumed) |  |  |  |  |  |  |  |  |  |  |  |  |  |  |  |  |  |  |  |  | MIC S. aureus ATCC 29213 [5]: 50 µM (≈ 80.1 µg/mL); MIC E. coli ATCC 25922 [6]: 6.25 µM (≈ 10 µg/mL)
